From publication PMC6990439, “Novel Sulfonanilide Inhibitors of SHIP2 Enhance Glucose Uptake into Cultured Myotubes” (ACS Omega, 2020)
“Also recorded” adds a separate entry of the source. Like-named read-outs stand apart in the source and are kept apart here.

Experiments:
[1] = test system: Akt phosphorylation in L6 myotubes; assay: Akt activation (phosphorylation at Ser473) assay, quantitative Western blotting; assay type: cell-based, Rat; conditions: 15 min pretreatment then 10 nM insulin for 15 min
Protocol: (§1) Rat L6 myoblasts (American Type Culture Collection, Manassas, Virginia, USA) and L6 myoblasts stably overexpressing HA-tagged GLUT4 transporter (L6-GLUT4) were grown in high glucose DMEM (Sigma-Aldrich) supplemented with 10% FBS (Sigma-Aldrich, St. Louis, MO, USA), glutamine (Lonza; Walkersville, MD, USA), and penicillin–streptomycin (Sigma-Aldrich) at +37 °C in a humidified 5% CO2 atmosphere. For differentiation, the FBS concentration in the medium was lowered to 2%.
To measure the Akt activation (phosphorylation), L6 myoblasts were differentiated into myotubes for 7 days, serum starved O/N, and treated with 0–50 μM sulfonanilides for 15 min after which 10 nM insulin (Actrapid, Novo Nordisk, Bagsvaerd, Denmark) was added for an additional 15 min. The cells were lysed in NP-40 buffer (1% nonidet P-40, 20 mM Tris–HCl pH 7.4, 150 mM NaCl) supplemented with phosphatase inhibitors (50 mM NaF and 1 mM Na3VO4) and protease inhibitor cocktail (cOmpleteProtease Inhibitor Coctail tablets, Roche Diagnostics GmbH, Mannheim, Germany) and then immunoblotted as in Tolvanen et al.[32] Briefly, samples were separated in 8% polyacrylamide gels and transferred onto PVDF membrane (Immobilon-FL PVDF transfer membrane, Merck Millipore Ltd., Tullagreen, Ireland). […]

[2] = test system: L6-GLUT4 myotubes; assay: Radioactive 2-deoxyglucose glucose uptake assay; assay type: cell-based, Rat; conditions: 50 μM, 20 h; for increase of glucose uptake with insulin stimulation: 100 nM insulin 15 min, compared to control cells stimulated with insulin; for increase of glucose uptake without insulin: serum starvation, no insulin, vs control
Protocol: as §1
Glucose uptake was measured by a radioactive 2-deoxyglucose assay. L6 myotubes overexpressing GLUT4 glucose transporter were differentiated for 8–9 days. Cells were serum-starved for 20 h supplemented with 50 μM of sulfonanilides 10 or 11, 50 μM of metformin. Thereafter, cells were stimulated or not with 100 nM insulin for 15 min at 37 °C in DMEM (without D-glucose, L-glutamine, phenol red, and sodium pyruvate) (Gibco/Thermo Fisher Scientific). The cells were exposed to 1 μCi/mL 2-deoxy-D-[1, 2-^3H(N)]-glucose (PerkinElmer, Waltham MA, USA) for 5 min at 37 °C. Cells were lysed in 1% Triton X-100 in PBS, and the radioactivity of lysates was measured with a Wallac 1450 Microbeta Trilux liquid scintillator and a luminescense counter (PerkinElmer). Four independent experiments were performed, with 4 technical replicates for each condition.

[3] = test system: L6 myotubes; assay: alamarBlue cell viability (cytotoxicity) assay; assay type: cell-based, Rat; conditions: for effect on metabolic activity of the cells (alamarBlue): 50 μM; for effect on cell viability: up to 200 μM
Protocol: as §1
For cytotoxicity analyses, L6 myoblasts were seeded on 96-well plates, differentiated for 7 days into myotubes, and incubated O/N with 0-300 μM sulfonanilides after which 10 μL of alamarBlue cell viability reagent (ThermoFisher Scientific, Waltham, MA, USA) was added according to the manufacturer instructions. The fluorescence was measured at 544/590 nm ± 20 nm using a Hidex Sense microplate reader (Hidex, Turku, Finland) at 0 and 60 min time points after the addition of the alamarBlue reagent, and the viability of the cells was calculated. The assay was repeated three times (n = 4 for each condition).

[4] = test system: L6-GLUT4 myotubes; assay: On-Cell Western for HA-GLUT4 on the plasma membrane; assay type: cell-based, Rat; conditions: for increase of GLUT4 on the plasma membrane with insulin stimulation, compared to control cells treated with insulin / increase of GLUT4 on the plasma membrane with insulin stimulation, compared to control cells without insulin / increase of GLUT4 on the plasma membrane without insulin stimulation: 50 μM, 20 h; for increase of GLUT4 on the plasma membrane without insulin stimulation: no insulin, vs control without insulin
Protocol: as §1
Differentiated L6-GLUT4 myotubes cultured on 96-well plate were treated with sulfonanilides 10 or 11 at 50 μM concentration for 20 h, of which the last 4 h in a serum-free medium. The quiescent cells were stimulated or not with 100 nM insulin for 15 min at 37 °C and fixed with 2% paraformaldehyde on ice for 5 min followed by 20 min at room temperature. The cells were incubated with a primary antibody against HA.11 epitope tag (#901513, BioLegend, San Diego, CA, USA) diluted 1/100 in 50% Odyssey Blocking buffer (LI-COR) in PBS at room temperature for 1 h, followed by incubation with a secondary antibody (IRDye 800CW Donkey anti-Mouse, LI-COR) and the nuclear marker DRAQ-5 (Thermo Fisher Scientific, Rockford, IL, USA) at room temperature for 1 h. The fluorescent signals were detected and quantified with an Odyssey infrared imager (LI-COR). DRAQ-5 was used for normalization. Four independent experiments were performed, resulting in total in 30–34 replicates for each condition.

[5] = biological target: T1, recombinant SHIP2 phosphatase domain (Homo sapiens, UniProt O15357); assay: SHIP2 activity measurement, malachite green phosphate assay; assay type: biochemical; conditions: for IC50: 100 μM PI(3,4,5)P3, four-parameter curve-fit; for Emax: read-out: max. inhibition of SHIP2 activity
T1 construct: 100 ng of purified His-tagged recombinant SHIP2 phosphatase domain; His tag
T1 sequence (O15357 419-732 limits assumed): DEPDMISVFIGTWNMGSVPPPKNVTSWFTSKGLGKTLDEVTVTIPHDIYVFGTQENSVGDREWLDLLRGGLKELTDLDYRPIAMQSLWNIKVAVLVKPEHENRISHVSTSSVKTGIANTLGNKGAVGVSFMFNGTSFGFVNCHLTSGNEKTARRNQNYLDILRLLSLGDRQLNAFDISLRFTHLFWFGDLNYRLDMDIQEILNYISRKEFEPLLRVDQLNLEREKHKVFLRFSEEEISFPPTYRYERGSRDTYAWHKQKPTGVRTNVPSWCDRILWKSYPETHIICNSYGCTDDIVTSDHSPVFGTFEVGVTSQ
Protocol: For the activity measurements and other biological assays, sulfonanilides 1–12 were dissolved in DMSO and then further diluted into indicated concentrations in assay buffers or media. The capacities of 1–12 to inhibit SHIP2 activity and the IC50 values of 1–12 were measured using the recombinant SHIP2 phosphatase domain and malachite green phosphate assay at the High Throughput Biomedicine Unit (University of Helsinki, Finland). Different concentrations of 1–12 were dispensed to 384-well plates after which 100 ng of purified His-tagged recombinant SHIP2 phosphatase domain in reaction buffer (10 mM HEPES, pH 7.25, 6 mM MgCl2, 0.1% CHAPS, 250 mM sucrose and 0.25 mM EDTA) was added, and the plates were incubated for 15 min at room temperature. The reaction was started by adding 7.5 μL of PI(3,4,5)P3 (Echelon Biosciences, Salt Lake City, UT, USA) diluted in the reaction buffer (the final concentration of PI(3,4,5)P3 per well was 100 μM in the total volume of 15 μL), plates were incubated for 20 min at room temperature, and 15 μL of BIOMOL green reagent (Biomol, Plymouth Meeting, PA, USA) was added to wells. After 25 min incubation at room temperature, the absorbance was measured at 620 nm using a Pherastar FS plate reader (BMG Labtech, Offenburg, Germany) (n = 3 for each condition).
Data are presented as means ± STD or SEM of three or four independent experiments. Statistical analyses were performed using an unpaired, two-tailed Student’s t-test. P-values ≤0.05 were considered statistically significant. IC50-values were calculated using GraphPad Software, Inc., Prism version 6.05 (San Diego, CA, USA) using four-parameter curve-fit.

[6] = test system: L6-GLUT4 myotubes; parameters: method as in PMID 30321069, PMID 1505458; conditions: cited from earlier work
[7] = purified His-tagged SHIP2 phosphatase domain
[8] = purified His-tagged SHIP2 phosphatase domain, 100 μM PI(3,4,5)P3, n = 3

## O=S(=O)(Nc1ccc(F)cc1Br)c1cccs1 [Compound 10, 2′-Bromo-4′-fluoro-2-thiophenesulfonanilide]
[1]
  Akt activation at 50 μM: Neither sulfonanilide 10 nor 11 activated Akt; also recorded: did not enhance Akt activation
[2]
  increase of glucose uptake with insulin stimulation: 30%
  increase of glucose uptake without insulin: 18–19%
[3]
  effect on metabolic activity of the cells (alamarBlue): slightly enhance the metabolic activity
[3]; O/N incubation
  effect on cell viability: no or very little effect on cell viability; also recorded: not cytotoxic
[4]; 100 nM insulin 15 min
  increase of GLUT4 on the plasma membrane with insulin stimulation, compared to control cells treated with insulin: 10%
  increase of GLUT4 on the plasma membrane with insulin stimulation, compared to control cells without insulin: 26%
[4]
  increase of GLUT4 on the plasma membrane without insulin stimulation: 4%
[5]; [7]
  IC50: 41.2 µM
[5]; [8]
  Emax: 45 ± 17%

## CN(c1ccccc1)S(=O)(=O)c1ccoc1 [Compound 5, N-Methyl-3-furansulfonanilide]
[5]; [8]
  Emax: 3 ± 1.5%

## CN(c1ccc(F)cc1F)S(=O)(=O)c1cccs1 [Compound 12, 2′,4′-Difluoro-N-methyl-2-thiophenesulfonanilide]
[5]; [8]
  max. inhibition of SHIP2 activity: almost inactive
  Emax: 5 ± 1.7%

## insulin: insulin (Actrapid, Novo Nordisk) used to stimulate myotubes
[4]; control myotubes without sulfonanilide, 100 nM insulin 15 min, vs no insulin
  increase of GLUT4 on the plasma membrane by insulin stimulation alone: 16%

## O=S(=O)(Nc1ccc(F)cc1Br)c1ccoc1 [Compound 9, 2′-Bromo-4′-fluoro-3-furansulfonanilide]
[5]; [8]
  Emax: 9 ± 3%

## CN(c1ccccc1)S(=O)(=O)c1ccc(F)c(F)c1F [Compound 4, N-Methyl-2,3,4-trifluorobenzenesulfonanilide]
[5]; [7]
  IC50: > 50 µM
[5]; [8]
  Emax: 12 ± 4%

## O=S(=O)(Nc1ccc(F)cc1Br)c1ccc(F)c(F)c1F [Compound 8, 2′-Bromo-4′-fluoro-2,3,4-trifluorobenzenesulfonanilide]
[5]; [8]
  Emax: 10 ± 5.1%

## CN(c1ccccc1)S(=O)(=O)c1ccc2ccccc2c1 [Compound 3, N-Methyl-2-naphthalenesulfonanilide]
[5]; [7]
  IC50: > 50 µM
[5]; [8]
  Emax: 15 ± 1.6%

## CN(C)C(=N)N=C(N)N [Metformin, metformin, reference compound]
[2]
  increase of glucose uptake with insulin stimulation: did not enhance glucose uptake; also recorded: did not increase glucose uptake
  increase of glucose uptake without insulin: did not enhance glucose uptake
[6]
  concentration necessary to increase glucose uptake into myotubes: 2 mM

## Cc1ccc(S(=O)(=O)N(C)c2ccccc2)cc1 [Compound 2, N-Methyl-p-toluenesulfonanilide]
[5]
  Emax: 10 ± 7.2%

## CN(c1ccccc1)S(=O)(=O)c1cccs1 [Compound 6, N-Methyl-2-thiophenesulfonanilide]
[5]; [7]
  IC50: > 50 µM
[5]; [8]
  Emax: 11 ± 2.2%

## Cc1ccc(S(=O)(=O)Nc2ccc(F)cc2Br)cc1 [Compound 7, 2′-Bromo-4′-fluoro-p-toluenesulfonanilide]
[5]; [7]
  IC50: > 50 µM
[5]; [8]
  Emax: 17 ± 2.1%

## CN(c1ccc(F)cc1F)S(=O)(=O)c1ccc(F)c(F)c1F [Compound 11, 2′,4′-Difluoro-N-methyl-2,3,4-trifluorobenzenesulfonanilide]
[1]
  Akt activation at 50 μM: Neither sulfonanilide 10 nor 11 activated Akt; also recorded: did not enhance Akt activation
[2]
  increase of glucose uptake with insulin stimulation: 23%
  increase of glucose uptake without insulin: 18–19%
[3]
  effect on metabolic activity of the cells (alamarBlue): slightly enhance the metabolic activity
[3]; 300 μM, O/N incubation
  decrease of cell viability: 24%
[3]; O/N incubation
  effect on cell viability: no or very little effect on cell viability
[4]; 100 nM insulin 15 min
  increase of GLUT4 on the plasma membrane with insulin stimulation, compared to control cells treated with insulin: no increase
  increase of GLUT4 on the plasma membrane with insulin stimulation, compared to control cells without insulin: 15%
[4]
  increase of GLUT4 on the plasma membrane without insulin stimulation: 8%
[5]; [7]
  IC50: 7.07 µM
[5]; [8]
  Emax: 45 ± 0.7%

## CN(c1ccccc1)S(=O)(=O)c1ccccc1 [Compound 1, N-Methylbenzenesulfonanilide]
[5]
  Emax: 6 ± 2.8%
